Our source for the IC50 values is patent publication US8518956B2, “1-(1-(2-ethoxyethyl)-3-ethyl-7-(4-methylpyridin-2-ylamino)-1H-pyrazolo[4,3-d]pyrimidin-5-yl) piperidine-4-carboxylic acid and salts thereof” (priority 2005, dated 2013).

Each structure is given as a SMILES string.

Usually IC50 stands for the concentration that gives 50% inhibition.

The target of this assay is T1, PDE5 enzyme (Homo sapiens, UniProt O76074).
T1 construct: The PDE5 enzyme isolated from human platelets; from tissue; host or cells: human platelets
Put plainly: Method 1: Human Platelet PDE5 Enzyme Inhibition Scintillation Proximity Assay. Format: biochemical. The settings on record: METHOD 1: PDE5 IC50, Table B, WO2004096810 examples. The source says: Method 1: Human Platelet PDE5 Enzyme Inhibition Scintillation Proximity Assay
An in vitro assay can be used to evaluate the inhibition of PDE5 enzyme activity by a test compound.
The PDE5 enzyme for use in the assay can be obtained from human platelets by appropriate modification of the method of Thompson, W J et al.; Biochemistry 18(23), 5228-5237, 1979, as described by Ballard S A et al.; J. Urology 159(6), 2164-2171, 1998. The PDE5 enzyme isolated from human platelets can be used to catalyze the hydrolysis of [^3H]cGMP (Amersham Biosciences) to 5′ nucleotide [^3H]GMP. The [^3H]GMP binds to yttrium silicate SPA beads (Amersham Biosciences) and is detected by scintillation counting. More specifically, the effect of the test compound at different concentrations can be evaluated in the assay by contacting the compound with a fixed amount of PDE5 enzyme in the presence of substrate (cGMP or cAMP in a 3:1 ratio unlabelled to [^3H]-labeled). Scintillation counting can be used as described above to determine relative PDE5 enzyme activity. The inhibition of PDE5 enzyme activity is then calculated relative to total PDE5 enzyme activity of uninhibited controls.
PDE5 IC50 Assay: 96-well microtiter plate format
• Buffer A: 20 mM Tris-HCl, 5 mM MgCl2, pH 7.4 • Buffer B: 2 mg/ml BSA in Buffer A (enzyme buffer) • cGMP substrate: Final concentration of 500 nM in assay The amount of ^3H-labeled substrate added depends upon the specific activity of [^3H]cGMP, and the cGMP substrate is diluted with a 10 mM stock of cold cGMP in Buffer A for a final substrate concentration of 500 nM in the assay. • PDE enzyme: Prepared in Buffer B. The dilution factor is determined by enzyme activity. • SPA beads: 20 mg/ml suspension prepared in dH2O.
Stocks of standard and test compounds are prepared at 5 mM in 100% DMSO. The compound is serially diluted in a dilution plate using a 10-point ½ log dilution format. 2 μl of the compound dilution is added in duplicate to the wells of the assay plate. 2 μl of 100% DMSO are added to designated control wells. 25 μl of Buffer A are added to all wells. 25 μl of Buffer B are added to the negative control wells. 25 μl of enzyme are added to the remaining wells. 50 μl of substrate are added to each well. Plates are sealed and incubated for 60 minutes on a plate shaker at 30 C. 50 plof SPA beads are added to stop the reaction. The plates are again sealed and shaken for 15 minutes to allow the beads to bind the GMP product. The beads are allowed to settle for 30 minutes and then read on a NXT TopCount scintillation counter. Data are analyzed with a curve fitting application for plate-based screening. Percent inhibition in this assay is calculated as follows: Inhibition (%)=[(mean maximum−compound value/(mean maximum−mean minimum)]×100.
The IC50 value is determined from sigmoid dose-response curves of enzyme activity versus compound concentration.
A general note: SPA uses beads or plates that emit light when radiolabelled molecules are held near them.

As to `CCOCCn1nc(CC)c2nc(N3CC(N)C3)nc(Nc3ccncn3)c21` [WO2004096810 Example 3], half-maximal inhibition (IC50) was put at 43.8 nM. That is a double-digit nanomolar value. For `CCCOCCn1nc(C)c2nc(N3CCN[C@H](C)C3)nc(Nc3cc(C)ccn3)c21` [WO2004096810 Example 4], the IC50 stood at 8.84 nM. With `CCCOCCn1nc(C)c2nc(N3CCN[C@H](C)C3)nc(Nc3ccc(C)cn3)c21` [WO2004096810 Example 7], the midpoint of inhibition, the IC50, lay at 6.03 nM. Take `COCCn1nc(C(C)C)c2nc(N3CCN[C@H](C)C3)nc(Nc3ccc(C)cn3)c21` [WO2004096810 Example 8]: half-maximal inhibition (IC50) was put at 6.95 nM. The IC50 values of the last two molecules are within 1.5-fold of each other. For the molecule `Cc1ccc(Nc2nc(N3CCN[C@H](C)C3)nc3c(C)nn(C(C)C)c23)nc1` [WO2004096810 Example 9], the IC50 was found to be 508 nM. `CCOCCn1nc(C)c2nc(N3CCN[C@H](C)C3)nc(Nc3ccncn3)c21` [WO2004096810 Example 11]: the IC50 was 0.29 nM. `CCOCCn1nc(C)c2nc(N3CCN[C@@H](C)C3)nc(Nc3ccncn3)c21` [WO2004096810 Example 12]: the IC50 turned out to be 1.74 nM. The value for `CCOCCn1nc(C)c2nc(N3CCN[C@H](C(C)C)C3)nc(Nc3ccncn3)c21` [WO2004096810 Example 13] was 19.1 nM; that for `CCOCCn1nc(C)c2nc(N3CCN[C@@H](C(C)C)C3)nc(Nc3ccncn3)c21` [WO2004096810 Example 14] was 42.1 nM; that for `CCOCCn1nc(CC)c2nc(N3CCN[C@H](C)C3)nc(Nc3ccncn3)c21` [WO2004096810 Example 15] was 0.09 nM.

With `CCOCCn1nc(CC)c2nc(N3CCN[C@@H](C)C3)nc(Nc3ccncn3)c21` [WO2004096810 Example 16], the half-maximal inhibitory concentration (IC50) stood at 0.98 nM. Molecule `CCOCCn1nc(CC)c2nc(N3CCN[C@H](C(C)C)C3)nc(Nc3ccncn3)c21` [WO2004096810 Example 17] gave a half-maximal inhibitory concentration (IC50) of 22.4 nM. Consider `CCOCCn1nc(CC)c2nc(N3CCN[C@@H](C(C)C)C3)nc(Nc3ccncn3)c21` [WO2004096810 Example 18], for which half-maximal inhibition (IC50) was put at 25.8 nM. The molecule `CCOCCn1nc(CC)c2nc(N3CCN[C@H](CC)C3)nc(Nc3ccncn3)c21` [WO2004096810 Example 19] returned a concentration for half-maximal inhibition (IC50) of 0.49 nM. As for `CCOCCn1ncc2nc(N3CCN[C@H](C)C3)nc(Nc3ccncn3)c21` [WO2004096810 Example 21], half-maximal inhibition (IC50) was put at 2.04 nM.

Molecule `CCCOCCn1nc(C)c2nc(N3CCN[C@H](C)C3)nc(Nc3ccncn3)c21` [WO2004096810 Example 23] showed a half-maximal inhibitory concentration (IC50) of 0.39 nM. To `Cc1nn(C(C)C)c2c(Nc3ccncn3)nc(N3CCN[C@H](C)C3)nc12` [WO2004096810 Example 24] belongs 37.7 nM; to `CCOCCn1nc(C)c2nc(N3CCN[C@H](C)C3)nc(Nc3cc(C)ncn3)c21` [WO2004096810 Example 26], 1.83 nM; to `CCOCCn1nc(CC)c2nc(N3CCN[C@H](C)C3)nc(N(C)c3ccncn3)c21` [WO2004096810 Example 28], 47.9 nM. To `CCCc1nn(C)c2c(Nc3ccc(C)cn3)nc(N3CCNCC3)nc12` [WO2004096810 Example 34] belongs 50.2 nM; to `CCCc1nn(C)c2c(Nc3ccc(C)cn3)nc(N3CCC(O)CC3)nc12` [WO2004096810 Example 35], 737 nM. `CCCc1nn(C)c2c(Nc3ccc(C)cn3)nc(N3CCCCC3)nc12` [WO2004096810 Example 36] returned a half-inhibitory concentration (IC50) of 1450 nM.

`CCCc1nn(C)c2c(Nc3ccc(C)cn3)nc(NC3CNC3)nc12` [WO2004096810 Example 37] displayed a half-inhibitory concentration (IC50) of more than 10000 nM. For `CCCc1nn(C)c2c(Nc3ccc(C)cn3)nc(N(C)C3CNC3)nc12` [WO2004096810 Example 38], the concentration for half-maximal inhibition (IC50) was more than 10000 nM. Consider `CCCc1nn(C)c2c(Nc3cc(C)ccn3)nc(N3CCN[C@@H](C)C3)nc12` [WO2004096810 Example 39], for which the IC50 was found to be 456 nM. The molecule `CCCc1nn(C)c2c(Nc3cc(C)ccn3)nc(N3CCN[C@H](C)C3)nc12` [WO2004096810 Example 40] came in with a 50% inhibitory concentration (IC50) of 334 nM.

The molecule `CCCc1nn(C)c2c(Nc3cc(C)ccn3)nc(NCc3ccc(OC)cc3)nc12` [WO2004096810 Example 71] showed an IC50 of 152 nM. As for `CCCc1nn(C)c2c(Nc3cc(C)ccn3)nc(NCCOC)nc12` [WO2004096810 Example 72], half-maximal inhibition (IC50) required 177 nM.

`CCCc1nn(C)c2c(Nc3cc(C)ccn3)nc(N)nc12` [WO2004096810 Example 77] came in with an IC50 of more than 10000 nM. Turning to `CCCc1nn(C)c2c(Nc3ccncn3)nc(N3CCN(C)CC3)nc12` [WO2004096810 Example 80], the IC50 worked out at 1940 nM.

Regarding `CCCc1nn(C)c2c(Nc3ccncn3)nc(N3CCN[C@@H](C)C3)nc12` [WO2004096810 Example 81], the half-inhibitory concentration (IC50) worked out at 118 nM. For `CCCc1nn(C)c2c(Nc3cc(OC)ncn3)nc(N3CCNCC3)nc12` [WO2004096810 Example 83], the half-maximal inhibitory concentration (IC50) came to 134 nM. To `CCCc1nn(C)c2c(Nc3cc(OC)ncn3)nc(NC)nc12` [WO2004096810 Example 84] belongs 247 nM; to `CCCc1nn(C)c2c(Nc3cccnn3)nc(N3CCNCC3)nc12` [WO2004096810 Example 88], more than 100 nM; to `CCCc1nn(C)c2c(Nc3ncc[nH]3)nc(NC)nc12` [WO2004096810 Example 90], 1550 nM. In the case of `CCCc1nn(C)c2c(Nc3ccncn3)nc(N3CCN[C@H](C)C3)nc12` [WO2004096810 Example 91], the IC50 came out at 22.6 nM. To `COCCCn1nc(C)c2nc(N(C)CCO)nc(Nc3cc(C)ccn3)c21` [WO2004096810 Example 92] belongs 26.5 nM. Take `COCCNc1nc(Nc2cc(C)ccn2)c2c(n1)c(C)nn2CCOC` [WO2004096810 Example 93]: inhibition was half-maximal at 31.1 nM (IC50). The value for `CCc1nn(CCOC)c2c(Nc3cc(C)ccn3)nc(N3CCC(O)CC3)nc12` [WO2004096810 Example 94] was 43.2 nM. With `COCCn1nc(C)c2nc(N3CC[C@H](OC)C3)nc(Nc3cc(C)ccn3)c21` [WO2004096810 Example 95], half-maximal inhibition (IC50) was put at 76 nM.

Regarding `COCCCn1nc(C)c2nc(NCCO)nc(Nc3cc(C)ccn3)c21` [WO2004096810 Example 96], the midpoint of inhibition, the IC50, lay at 87.9 nM.

`CCc1nn(CCOC)c2c(Nc3cc(C)ccn3)nc(NC[C@@H]3CCCN3)nc12` [WO2004096810 Example 98]: the half-inhibitory concentration (IC50) is 231 nM. This IC50 lies about 2.6-fold higher than the previous one. As for `CNc1nc(Nc2cc(C)ccn2)c2c(n1)c(C)nn2CCCOC` [WO2004096810 Example 99], inhibition was half-maximal at 239 nM (IC50). The IC50 values of the last two molecules are within 1.5-fold of each other. On to `COCCCn1nc(C)c2nc(N3CC[C@@H](O)C3)nc(Nc3cc(C)ccn3)c21` [WO2004096810 Example 100], for which the half-maximal inhibitory concentration (IC50) came to 67.2 nM. Molecule `CCc1nn(CCOC)c2c(Nc3ccc(C)cn3)nc(NCCCO)nc12` [WO2004096810 Example 103] had an IC50 of 76.6 nM. Molecule `CCc1nn(CCOC)c2c(Nc3ccc(C)cn3)nc(N3CCOCC3)nc12` [WO2004096810 Example 108] had a half-inhibitory concentration (IC50) of 778 nM. In turn, `CCc1nn(CCOC)c2c(Nc3ccccn3)nc(N(C)CCO)nc12` [WO2004096810 Example 109] had an IC50 of 27.3 nM.

On to `CCc1nn(CCOC)c2c(Nc3ccc(F)cn3)nc(NCCOC)nc12` [WO2004096810 Example 110], for which the IC50 amounted to 513 nM. The molecule `CCCc1nn(C)c2c(Nc3ccc(C)cn3)nc(N3CCN(C)CC3)nc12` [WO2004096810 Example 113] showed a half-inhibitory concentration (IC50) of 1250 nM. On to `COCCCn1nc(C)c2nc(N[C@@H](C)CO)nc(Nc3cc(C)cc(C)n3)c21` [WO2004096810 Example 114], for which the IC50 came out at 60.6 nM. This IC50 is about 21-fold lower than that of the molecule before. `CCc1nn(CCOC)c2c(Nc3cc(C)n[nH]3)nc(NCCn3cccn3)nc12` [WO2004096810 Example 115] yielded a concentration for half-maximal inhibition (IC50) of 220 nM.

Turning to `COCCCn1nc(C)c2nc(N3CCNCC3)nc(Nc3cc(C)n[nH]3)c21` [WO2004096810 Example 116], the IC50 was 1760 nM. This IC50 is about 8-fold higher than that of the molecule before. The molecule `CCCc1nn(C)c2c(Nc3ccc(CC)cn3)nc(N3CCNCC3)nc12` [WO2004096810 Example 123] registered an IC50 of 248 nM. The molecule `CCCc1nn(C)c2c(NC3CCCCC3)nc(N3CCNCC3)nc12` [WO2004096810 Example 124] showed a concentration for half-maximal inhibition (IC50) of 78.2 nM. `CCCc1nn(C)c2c(Nc3cc(C)cc(C)n3)nc(N3CCNCC3)nc12` [WO2004096810 Example 125] registered an IC50 of 182 nM.
